Reference: patent US11891634B2, “PDE5A destabilizing domains” (The Board of Trustees of the Leland Stanford Junior …, priority 2017, dated 2024)

How the values were obtained:
Type in all cases: cell-based, human
[1] = tested on: HCT 116 cells transduced with the PDE5A DD derived GFP constructs; assay: Response to Tadalafil, GFP expression by FACS in HCT116; conditions: for MFI / Stabilization ratio with Tadalafil: 48 hours, HCT116; for Basal expression: Table 21, MFI with DMSO / parental HCT116, Tadalafil experiment
Procedure: (§1) PDE5AN (#3) was cloned as AcGFP fusion into pELNS vector carrying mCherry marker and packaged in lentiviral vectors. HCT116 cells were transduced with the construct and stable integrants were selected by cell sorting using mCherry marker. Cells were treated with vehicle (dimethyl sulfoxide, DMSO) or varying doses of Tadalafil (TDF) for 48 hrs with doses ranging from 0.01 μM to 100 μM. Following the treatment, cells were analyzed for GFP expression using FACS. Basal expression was calculated as the ratio of GFP signal in the absence of ligand for a given cell line to auto fluorescence of parental HCT-116 cells. Stabilization ratio was calculated as the ratio of the GFP signal observed in the presence of stabilizing ligand to the signal from the same cell line in the absence of ligand.
HCT 116 cells transduced with the PDE5A DD derived GFP constructs were also tested with increasing doses of Tadalafil. The HCT116 cells were incubated for 48 hours with Tadalafil starting at dose 0.01 μM to 100 μM. The GFP intensity of the Tadalafil treated samples was compared to the parental untransduced HCT116 and DMSO treated cells for each construct. The mean fluorescence intensity was calculated for each sample and used to calculate the stabilization ratios as well as the basal expression for each construct. The stabilization ratios are shown in Table 19 and Table 20 and the basal expression is show in Table 21.

[2] = tested on: HCT 116 cells transduced with the PDE5A DD derived GFP constructs; assay: Response to Vardenafil, GFP expression by FACS in HCT116; conditions: for MFI / Stabilization ratio with Vardenafil: 48 hours, HCT116; for Basal (DMSO/Parental): Table 10, GFP signal without ligand / auto fluorescence of parental HCT-116; for Basal: Table 15, MFI with DMSO / parental HCT116, Vardenafil experiment
Procedure: as §1, with “Mutations were created in PDE5A (535-860) catalytic domain using site directed mutagenesis and the mutants were” for “PDE5AN (#3) was”, “constructs” for “construct”, “10 μM Vardenafil (VDF)” for “varying doses of Tadalafil (TDF)”, “hours.” for “hrs with doses ranging from 0.01 μM to 100 μM.”
HCT 116 cells transduced with the PDE5A DD derived GFP constructs were also tested with increasing doses of Vardenafil. The HCT116 cells were incubated for 48 hours with Vardenafil starting at a dose of 0.002 μM to 30 μM. The GFP intensity of the Vardenafil treated samples was compared to the parental untransduced HCT116 and DMSO treated cells for each construct. The mean fluorescence intensity was calculated for each sample and used to calculate the stabilization ratios as well as the basal expression for each construct. The GFP expression was measured using flow cytometry and the mean fluorescence intensity (MFI) was calculated for each sample. The stabilization ratios are shown in Table 13 and Table 14 and the basal expression is show in Table 15.

[3] = tested on: HCT116 cells transduced with the constructs; assay: Response to Sildenafil, GFP expression by flow cytometry in HCT116; conditions: for MFI / Stabilization ratio with Sildenafil: 48 hours, HCT116; for Basal expression: Table 26, MFI with DMSO / parental HCT116, Sildenafil experiment
Procedure: Similar experiments were performed in HCT116 cells using sildenafil. The above-mentioned DDs were cloned as AcGFP fusion into pELNS vector carrying mCherry marker and packaged in lentiviral vectors. HCT116 cells were transduced with the constructs and stable integrants were selected by cell sorting using mCherry marker. Cells were treated with sildenafil at the following μM concentrations: 0.01, 0.02, 0.05, 0.14, 0.41, 1.23, 3.7, 11.11, 33.33, and 100 for a duration of 48 hours. The fluorescence was analyzed by flow cytometry and the mean fluorescence intensity was calculated for all samples. […] The stabilization ratios are shown in Table 24 and Table 25 and the basal expression is show in Table 26.

## PDE5AC (#28): AcGFP fused to C-terminal DD 535-860 of PDE5A (Q589R, K591E, N609H, D764V), SEQ ID NO. 25
[1]; DMSO (no Tadalafil)
  MFI: 15004
[1]
  Basal expression: 11.72
[1]; Tadalafil 0.01 μM vs DMSO
  Stabilization ratio with Tadalafil: 0.9
[1]; Tadalafil 0.01 μM
  MFI: 14073
[1]; Tadalafil 0.02 μM vs DMSO
  Stabilization ratio with Tadalafil: 1.0
[1]; Tadalafil 0.02 μM
  MFI: 14513
[1]; Tadalafil 0.05 μM vs DMSO
  Stabilization ratio with Tadalafil: 1.0
[1]; Tadalafil 0.05 μM
  MFI: 15730
[1]; Tadalafil 0.14 μM vs DMSO
  Stabilization ratio with Tadalafil: 1.2
[1]; Tadalafil 0.14 μM
  MFI: 18316
[1]; Tadalafil 0.41 μM vs DMSO
  Stabilization ratio with Tadalafil: 1.9
[1]; Tadalafil 0.41 μM
  MFI: 28462
[1]; Tadalafil 1.23 μM vs DMSO
  Stabilization ratio with Tadalafil: 3.0
[1]; Tadalafil 1.23 μM
  MFI: 44739
[1]; Tadalafil 3.7 μM vs DMSO
  Stabilization ratio with Tadalafil: 4.6
[1]; Tadalafil 3.7 μM
  MFI: 69430
[1]; Tadalafil 11.11 μM vs DMSO
  Stabilization ratio with Tadalafil: 5.7
[1]; Tadalafil 11.11 μM
  MFI: 85998
[1]; Tadalafil 33.33 μM vs DMSO
  Stabilization ratio with Tadalafil: 6.3
[1]; Tadalafil 33.33 μM
  MFI: 95189
[1]; Tadalafil 100 μM vs DMSO
  Stabilization ratio with Tadalafil: 6.5
[1]; Tadalafil 100 μM
  MFI: 97016
[2]; DMSO (no Vardenafil)
  MFI: 13817
[2]
  Basal (DMSO/Parental): 10.4
  Basal: 7.07
[2]; Vardenafil 0.002 μM vs DMSO
  Stabilization ratio with Vardenafil: 1.1
[2]; Vardenafil 0.002 μM
  MFI: 15437
[2]; Vardenafil 0.005 μM
  MFI: 19446
[2]; Vardenafil 0.014 μM vs DMSO
  Stabilization ratio with Vardenafil: 2.1
[2]; Vardenafil 0.014 μM
  MFI: 29314
[2]; Vardenafil 0.041 μM vs DMSO
  Stabilization ratio with Vardenafil: 3.3
[2]; Vardenafil 0.041 μM
  MFI: 45804
[2]; Vardenafil 0.123 μM vs DMSO
  Stabilization ratio with Vardenafil: 5.4
[2]; Vardenafil 0.123 μM
  MFI: 74153
[2]; Vardenafil 0.370 μM vs DMSO
  Stabilization ratio with Vardenafil: 5.9
[2]; Vardenafil 0.370 μM
  MFI: 81663
[2]; Vardenafil 1.111 μM vs DMSO
  Stabilization ratio with Vardenafil: 6.5
[2]; Vardenafil 1.111 μM
  MFI: 89426
[2]; Vardenafil 3.333 μM vs DMSO
  Stabilization ratio with Vardenafil: 6.7
[2]; Vardenafil 3.333 μM
  MFI: 92290
[2]; Vardenafil 10 μM vs DMSO
  Stabilization ratio with Vardenafil: 6.3
[2]; Vardenafil 10 μM
  MFI: 86985
[2]; Vardenafil 30 μM vs DMSO
  Stabilization ratio with Vardenafil: 6.7
[2]; Vardenafil 30 μM
  MFI: 93145
[3]; DMSO (no Sildenafil)
  MFI: 13208
[3]; Sildenafil 0.01 μM vs DMSO
  Stabilization ratio with Sildenafil: 1.1
[3]; Sildenafil 0.01 μM
  MFI: 14613
[3]; Sildenafil 0.02 μM vs DMSO
  Stabilization ratio with Sildenafil: 1.2
[3]; Sildenafil 0.02 μM
  MFI: 16502
[3]; Sildenafil 0.05 μM vs DMSO
  Stabilization ratio with Sildenafil: 1.3
[3]; Sildenafil 0.05 μM
  MFI: 17801
[3]; Sildenafil 0.14 μM vs DMSO
  Stabilization ratio with Sildenafil: 2.0
[3]; Sildenafil 0.14 μM
  MFI: 26694
[3]; Sildenafil 0.41 μM vs DMSO
  Stabilization ratio with Sildenafil: 3.3
[3]; Sildenafil 0.41 μM
  MFI: 43862
[3]; Sildenafil 1.23 μM vs DMSO
  Stabilization ratio with Sildenafil: 5.0
[3]; Sildenafil 1.23 μM
  MFI: 65762
[3]; Sildenafil 3.70 μM vs DMSO
  Stabilization ratio with Sildenafil: 6.3
[3]; Sildenafil 3.70 μM
  MFI: 83657
[3]; Sildenafil 11.11 μM vs DMSO
  Stabilization ratio with Sildenafil: 6.1
[3]; Sildenafil 11.11 μM
  MFI: 80269
[3]; Sildenafil 33.33 μM vs DMSO
  Stabilization ratio with Sildenafil: 6.3
[3]; Sildenafil 33.33 μM
  MFI: 83663
[3]; Sildenafil 100.00 μM vs DMSO
  Stabilization ratio with Sildenafil: 6.1
[3]
  Basal expression: 10.3

## PDE5AC (#43): AcGFP fused to C-terminal DD 535-860 of PDE5A (Q589R, N609H, Y676N, A762S), SEQ ID NO. 29
[1]; DMSO (no Tadalafil)
  MFI: 10998
[1]
  Basal expression: 8.59
[1]; Tadalafil 0.01 μM vs DMSO
  Stabilization ratio with Tadalafil: 1.0
[1]; Tadalafil 0.01 μM
  MFI: 11444
[1]; Tadalafil 0.02 μM vs DMSO
  Stabilization ratio with Tadalafil: 1.0
[1]; Tadalafil 0.02 μM
  MFI: 11479
[1]; Tadalafil 0.05 μM vs DMSO
  Stabilization ratio with Tadalafil: 1.1
[1]; Tadalafil 0.05 μM
  MFI: 11764
[1]; Tadalafil 0.14 μM vs DMSO
  Stabilization ratio with Tadalafil: 1.2
[1]; Tadalafil 0.14 μM
  MFI: 13429
[1]; Tadalafil 0.41 μM vs DMSO
  Stabilization ratio with Tadalafil: 1.7
[1]; Tadalafil 0.41 μM
  MFI: 18940
[1]; Tadalafil 1.23 μM vs DMSO
  Stabilization ratio with Tadalafil: 2.9
[1]; Tadalafil 1.23 μM
  MFI: 32204
[1]; Tadalafil 3.7 μM vs DMSO
  Stabilization ratio with Tadalafil: 4.5
[1]; Tadalafil 3.7 μM
  MFI: 49646
[1]; Tadalafil 11.11 μM vs DMSO
  Stabilization ratio with Tadalafil: 5.8
[1]; Tadalafil 11.11 μM
  MFI: 64186
[1]; Tadalafil 33.33 μM vs DMSO
  Stabilization ratio with Tadalafil: 6.8
[1]; Tadalafil 33.33 μM
  MFI: 74446
[1]; Tadalafil 100 μM vs DMSO
  Stabilization ratio with Tadalafil: 6.9
[1]; Tadalafil 100 μM
  MFI: 76281
[2]; DMSO (no Vardenafil)
  MFI: 12047
[2]
  Basal (DMSO/Parental): 8.7
  Basal: 6.17
[2]; Vardenafil 0.002 μM vs DMSO
  Stabilization ratio with Vardenafil: 1.1
[2]; Vardenafil 0.002 μM
  MFI: 13329
[2]; Vardenafil 0.005 μM
  MFI: 17702
[2]; Vardenafil 0.014 μM vs DMSO
  Stabilization ratio with Vardenafil: 2.8
[2]; Vardenafil 0.014 μM
  MFI: 33483
[2]; Vardenafil 0.041 μM vs DMSO
  Stabilization ratio with Vardenafil: 4.6
[2]; Vardenafil 0.041 μM
  MFI: 55300
[2]; Vardenafil 0.123 μM vs DMSO
  Stabilization ratio with Vardenafil: 5.8
[2]; Vardenafil 0.123 μM
  MFI: 70385
[2]; Vardenafil 0.370 μM vs DMSO
  Stabilization ratio with Vardenafil: 6.5
[2]; Vardenafil 0.370 μM
  MFI: 78215
[2]; Vardenafil 1.111 μM vs DMSO
  Stabilization ratio with Vardenafil: 6.9
[2]; Vardenafil 1.111 μM
  MFI: 83052
[2]; Vardenafil 3.333 μM vs DMSO
  Stabilization ratio with Vardenafil: 7.4
[2]; Vardenafil 3.333 μM
  MFI: 88707
[2]; Vardenafil 10 μM vs DMSO
  Stabilization ratio with Vardenafil: 7.1
[2]; Vardenafil 10 μM
  MFI: 85867
[2]; Vardenafil 30 μM vs DMSO
  Stabilization ratio with Vardenafil: 7.2
[2]; Vardenafil 30 μM
  MFI: 86318
[3]; DMSO (no Sildenafil)
  MFI: 11147
[3]; Sildenafil 0.01 μM vs DMSO
  Stabilization ratio with Sildenafil: 1.1
[3]; Sildenafil 0.01 μM
  MFI: 11962
[3]; Sildenafil 0.02 μM vs DMSO
  Stabilization ratio with Sildenafil: 1.1
[3]; Sildenafil 0.02 μM
  MFI: 11940
[3]; Sildenafil 0.05 μM vs DMSO
  Stabilization ratio with Sildenafil: 1.4
[3]; Sildenafil 0.05 μM
  MFI: 15203
[3]; Sildenafil 0.14 μM
  MFI: 24319
[3]; Sildenafil 0.41 μM vs DMSO
  Stabilization ratio with Sildenafil: 3.6
[3]; Sildenafil 0.41 μM
  MFI: 40470
[3]; Sildenafil 1.23 μM vs DMSO
  Stabilization ratio with Sildenafil: 5.2
[3]; Sildenafil 1.23 μM
  MFI: 57723
[3]; Sildenafil 3.70 μM vs DMSO
  Stabilization ratio with Sildenafil: 6.6
[3]; Sildenafil 3.70 μM
  MFI: 73400
[3]; Sildenafil 11.11 μM vs DMSO
  Stabilization ratio with Sildenafil: 6.9
[3]; Sildenafil 11.11 μM
  MFI: 76900
[3]; Sildenafil 33.33 μM vs DMSO
  Stabilization ratio with Sildenafil: 8.5
[3]; Sildenafil 33.33 μM
  MFI: 94863
[3]; Sildenafil 100.00 μM vs DMSO
  Stabilization ratio with Sildenafil: 5.1
[3]; Sildenafil 100.00 μM
  MFI: 56552
[3]
  Basal expression: 8.7
